Laboratory results taken from US20240180888A1, “C5AR1 INHIBITORS FOR TREATING […] REACTIONS TO TAXANES” (Dompe' Farmaceutici SPA, priority 2021, published 2024).

B1: C5a: anaphylatoxin, pro-inflammatory polypeptide, the natural ligand of the receptor C5aR1 (protein, UniProt P01031 678-751, looked up)
C5a anaphylatoxin: TLQKKIEEIAAKYKHSVVKKCCYDGACVNNDETCEQRAARISLGPRCIKAFTECCVVASQLRANISHKDMQLGR
modifications: C5a anaphylatoxin
notes: anaphylatoxin, pro-inflammatory polypeptide, the natural ligand of the receptor C5aR1

Assays:
[1] = test system: RAW 264.7 mouse macrophages; experiment: Proteome profiler cytokine release assay in RAW 264.7 macrophages; format: cell-based; conditions: 10 nM, 24 h; for proteome profile of cytokines released: murine
Protocol: RAW 264.7 (ATTC TIB-71) mouse macrophages were cultured following manufacturer's instructions using DMEM medium (Euroclone, MI, Italy) supplemented with 10% FBS (non-heat inactivated) (ATCC, USA) at 37° C., in a humidified 95% air-5% CO2 atmosphere and then were seeded at 1*10^4 cells/cm^2.
(§1) After 24 hours, cells were treated with C5a (diluted in medium) (10 nM, R&D, USA), Paclitaxel (diluted in medium) (10 nM, Sigma, USA) in the absence and in the presence of the C5a inhibitor DF3966A (10 μM), and anti C5aR Ab (BioLegend, CA, USA; 50 nM) or Avacopan (10 μM) for 24 hours, then the media was replaced with culture media (5 ml) for 24 h and then collected.
(§2) Conditioned media were centrifugated to remove particulates and assayed immediately. […] The reagents were prepared following manufacturer's protocols (R&D, USA). Briefly, the membranes were incubated with Array Buffer 6 for 1 hour on a rocking platform shaker. The samples were prepared by adding up to 1 ml of Array Buffer 4 in two separated tubes and then 15 microl of reconstituted mouse cytokine detection antibody cocktail (>40 mouse cytokines) to each prepared sample and incubated 1 hour. Then, the Array Buffer 6 was aspirated and replaced with the sample/antibody mixtures and incubated at 4° C. overnight. The following day, membranes were washed 3 times and Streptavidin-HRP (1:2000) was incubated for 30 minutes at room temperature on a rocking platform shaker. The membranes were washed again, and 1 ml of prepared Chemi Reagent mix was placed onto each membrane. Multiple exposure times were acquired using UVITEC digital analyzer (Alliance, Cambridge, UK).
(§3) The positive signals seen in the developed membranes can be identified by placing the transparency overlay template on the array image and aligning it with pairs of reference spots in the three corners of each array (see FIG. 10). […] Pixel densities (average signals of pair of duplicates which represent each cytokine) were analyzed by ImageJ and the average background was subtracted from each spot.
(§4) In details, the profiling of cytokines released (>40 cytokines) from RAW 264.7 and human macrophages challenged with paclitaxel (Sigma-Aldrich; 10 nM) or C5a (R&D Systems, Inc. MN, USA; 10 nM) for 24 h using a proteome profiler assay. […] The experimental assay is explained in example 4.
(§5) For the human macrophages, human XL Cytokine Array kit #Ary022B was used, while for murine macrophages mouse cytokine Array Panel A #Ary006 was used (R&D systems, USA).

[2] = molecular target: T1, complement component 5a receptor 2 (C5AR2) (Homo sapiens, UniProt Q9P296); experiment: BIAcore SPR binding to C5aR2 immobilised on sensorchip CM5 via His-tag
T1 construct: purchased CUSABIO CSB-CF868390HU
From the text: BIAcore technology was used to analyze the interaction between Paclitaxel and complement component 5a receptor 1 (C5aR1) (Example 1), complement component 5a receptor 2 (C5AR2) (Example 2) or complement component 5a (Example 3).
The BIAcore systems exploit the phenomenon of Surface Plasmon Resonance (SPR) to monitor interactions between molecules in real time. Briefly, SPR phenomenon occurs in thin conducting films at an interface between media of different refractive index. In BIAcore systems, the media are the glass of the sensorchip and the sample solution, and the conducting film is a thin layer of gold on the sensorchip surface. BIAcore monitors the interaction between two molecules, one attached to the sensor surface, called ligand, and the other one free in solution, and called analyte.
A policlonal anti-His antibody (ab137839, Abcam) was immobilized on a sensorchip CM5 (#29149604, Cytiva). In details, the antibody was diluted at a concentration of 50 μg/ml in 10 mM acetate buffer at pH 4.0, and injected over the surface of the sensorchip. Activation and deactivation of sensorchip were performed as described in Example 1a). […] Once the antibody was immobilized, the receptor was captured in an oriented way on the surface of the sensorchip. In particular, C5AR2-His (CSB-CF868390HU, CUSABIO) at a concentration of 100 μg/ml was injected onto the sensorchip with a flow rate of 5 microl/min in Running Buffer.
5 μM C5a (A144, Complement Technologies) was injected on C5AR2 surface of the sensorchip prepared in Example 2a).
Paclitaxel was injected on the C5aR2 surface of the sensorchip prepared in Example 2a) at different concentrations (10, 100 and 200 microM) in Running Buffer, and the amount of obtained RU was evaluated.

[3] = test system: human (THP-1) macrophages; experiment: Proteome profiler cytokine release assay in human macrophages; format: cell-based; conditions: human; 10 nM, 24 h
Protocol: as §1, §2, §3, §4, §5

F11 hybridoma cells = experiment: Real Time PCR for IL-8 mRNA expression in differentiated F11 cells; format: cell-based; conditions: 20 h; 10 nM Paclitaxel or 50 nM C5a
Protocol: F11 hybridoma cells (ECACC 08062601), chosen as an alternative model of DRG neurons were cultured in DMEM medium (Euroclone, MI, Italy) supplemented with 10% FBS (Sigma-Aldrich St. Louis, CO, USA), 1% penicillin/streptomycin (Euroclone) and 1% glutamine (Euroclone) at 37° C., in a humidified 95% air-5% CO2 atmosphere. For the experiments, cells were used at 18th passage and seeded at 1×10^4 cells/cm2. After 24 h, cells were differentiated with rat NGF (rNGF) (Sigma). rNGF was dissolved in DMEM with 1% penicillin/streptomycin and 1% glutamine (FBS free) at the final concentration 50 ng/ml. The medium was replaced every 3 days until complete differentiation, which happened after 7 days. […]
For gene expression analysis, the following protocol was used: total RNA was extracted by Trizol reagent, according to the manufacturer's instructions. The total RNA concentration was determined spectrophotometrically in RNAase-free water, and 1 μg aliquots of total RNA were reverse-transcripted into cDNA using ProtoScript First Strand cDNA Synthesis Kit (NEB). […] Relative expression levels were calculated for each sample after normalization against reference gene, using the ΔΔCt method for comparing relative fold expression differences, as previously described [Livak et al., 2001 DOI: 10.1006/meth.2001.1262]. […]

T1 sequence (Q9P296 whole entry): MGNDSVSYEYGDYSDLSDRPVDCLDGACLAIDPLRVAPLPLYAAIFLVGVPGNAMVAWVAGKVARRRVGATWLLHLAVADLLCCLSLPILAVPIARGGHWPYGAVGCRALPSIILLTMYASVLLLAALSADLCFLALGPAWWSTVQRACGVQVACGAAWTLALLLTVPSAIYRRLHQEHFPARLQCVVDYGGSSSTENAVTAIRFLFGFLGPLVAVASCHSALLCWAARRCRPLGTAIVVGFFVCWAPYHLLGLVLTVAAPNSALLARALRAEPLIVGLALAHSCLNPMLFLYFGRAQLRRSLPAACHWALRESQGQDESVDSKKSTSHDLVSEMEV

| Molecule | levels of MCP-1, MIP-1α, MIP-1β, MIP-2 and ID Ra compared to the control group [1] | proteome profile of cytokines released [1] | binding to immobilised C5aR2 ([2]; 10, 100 and 200 microM in Running Buffer) | binding to immobilised C5aR2 (legend of FIG. 8) ([2]; from 4.06 μM to 37.5 μM) | proteome profile of cytokines released [3] | IL-8 relative mRNA expression (F11 hybridoma cells) | binding to immobilised C5aR2 ([2]; 5 μM) |
| --- | --- | --- | --- | --- | --- | --- | --- |
| CC(=O)O[C@H]1C(=O)[C@@]2(C)[C@H]([C@H](OC(=O)c3ccccc3)[C@]3(O)C[C@H](OC(=O)[C@H](O)[C@@H](NC(=O)c4ccccc4)c4ccccc4)C(C)=C1C3(C)C)[C@]1(OC(C)=O)CO[C@@H]1C[C@@H]2O [Paclitaxel] | significantly increased | resembled that of typical anaphylaxis | not able to bind | not able to bind | resembled that of typical anaphylaxis | increase IL-8 expression levels | – |
| B1 | significantly increased | resembled that of typical anaphylaxis | – | – | resembled that of typical anaphylaxis | increases IL-8 expression levels | is able to bind |
